Source: US8138191B2, “Inhibitor compounds and cancer treatment methods” (Critical Outcome Technologies Inc., priority 2007, dated 2012)
Read-outs that look alike come from different tables or passages of the source.

Legend:
[1] = test system: AKT1, AKT2, AKT3 expression in a panel of cell lines; assay: Correlation between AKT isoform expression and COTI-2 IC50 in a panel of cell lines; type: cell-based, human; details: corrected for total AKT expression
Excerpt: Cell cultures were maintained under regular tissue culture conditions and passaged 1-2 times a week as recommended by ATCC. For siRNA experiments the manufacturer's conditions for growth and transfection were followed. All siRNA reagents for AKT and AKT2 transfections were obtained from Cell Signaling.
Routine laboratory methods were employed for the production of cellular lysates, protein quantification, SDS-PAGE and western blotting. All antibodies were obtained from Cell Signaling and Abcam. To determine total AKT & AKT2 in DMS114 cells, 5×10^4 cells were incubated for 48 h with 10-100 ng of AKT2 siRNA or a scrambled control oligonucleotide. Cells were lysed and 50 μg of protein was separated by SDS-PAGE and blotted with antibody to total AKT or AKT2.
The expression of AKT1, AKT2, AKT3, total AKT and β-actin were examined in a panel of cell lines representing various types of cancers, with the aim of determining if a correlation exists with the pre-determined IC50's for these cell lines. […] The down-regulation of AKT2 prior to the addition of COTI-2 was confirmed with western blotting in DMS114 cell lines using an antibody to AKT2 (FIG. 35).

MCF-7 cells = assay: Sensitivity to COTI-2 after PTEN siRNA knockdown (alamar Blue), MCF-7; type: cell-based, human; details: MCF-7, 48 h post-transfection
Experimental: Briefly, HeLa and MCF-7 cells were transfected with 100 nM PTEN siRNA or control non-targeted siRNA at 48 or 144 h prior to exposure to various concentrations of COTI-2.
To assess the capacity of transient siRNA transfection to alter the ability of cells to proliferate in the presence or absence of COTI-2, HeLa or MCF-7 cells (both PTEN-positive) were plated in T25 flasks and transfected 24 h later with PTEN siRNA or non-targeting control siRNA (100 nM in both cases), using Oligofectamine Reagent (Invitrogen) according to the manufacturer's instructions and as previously described (J Pharmacol Exp Ther, 322:123-132). […] PTEN and 18S rRNA mRNA levels were determined by semi-quantitative reverse transcription PCR. […]
For determination of drug sensitivity, HeLa and MCF-7 cells (transfected with PTEN siRNA or control, non-targeted siRNA 48 or 144 hours prior) were re-plated in 96-well plates (VWR, Mississauga, ON, Canada) at 1700 (MCF-7) and 1200 (HeLa) cells per well in a volume of 100 μl of DMEM+10% FBS. […] Cells were then grown for 4 days, and viable cell numbers were assessed by the alamar Blue fluorescence assay using a Wallac Victor^2 multilabel counter (PerkinElmer Wallac, Gaithersburg, Md.). […]

P-glycoprotein = molecular target: T1, P-glycoprotein (Homo sapiens, UniProt P08183); assay: P-glycoprotein inhibition (TC7, 3H-digoxin substrate); type: in vitro ADME
T1 construct: endogenous in cells; host or cells: TC7 cells
T1 sequence (P08183 whole entry): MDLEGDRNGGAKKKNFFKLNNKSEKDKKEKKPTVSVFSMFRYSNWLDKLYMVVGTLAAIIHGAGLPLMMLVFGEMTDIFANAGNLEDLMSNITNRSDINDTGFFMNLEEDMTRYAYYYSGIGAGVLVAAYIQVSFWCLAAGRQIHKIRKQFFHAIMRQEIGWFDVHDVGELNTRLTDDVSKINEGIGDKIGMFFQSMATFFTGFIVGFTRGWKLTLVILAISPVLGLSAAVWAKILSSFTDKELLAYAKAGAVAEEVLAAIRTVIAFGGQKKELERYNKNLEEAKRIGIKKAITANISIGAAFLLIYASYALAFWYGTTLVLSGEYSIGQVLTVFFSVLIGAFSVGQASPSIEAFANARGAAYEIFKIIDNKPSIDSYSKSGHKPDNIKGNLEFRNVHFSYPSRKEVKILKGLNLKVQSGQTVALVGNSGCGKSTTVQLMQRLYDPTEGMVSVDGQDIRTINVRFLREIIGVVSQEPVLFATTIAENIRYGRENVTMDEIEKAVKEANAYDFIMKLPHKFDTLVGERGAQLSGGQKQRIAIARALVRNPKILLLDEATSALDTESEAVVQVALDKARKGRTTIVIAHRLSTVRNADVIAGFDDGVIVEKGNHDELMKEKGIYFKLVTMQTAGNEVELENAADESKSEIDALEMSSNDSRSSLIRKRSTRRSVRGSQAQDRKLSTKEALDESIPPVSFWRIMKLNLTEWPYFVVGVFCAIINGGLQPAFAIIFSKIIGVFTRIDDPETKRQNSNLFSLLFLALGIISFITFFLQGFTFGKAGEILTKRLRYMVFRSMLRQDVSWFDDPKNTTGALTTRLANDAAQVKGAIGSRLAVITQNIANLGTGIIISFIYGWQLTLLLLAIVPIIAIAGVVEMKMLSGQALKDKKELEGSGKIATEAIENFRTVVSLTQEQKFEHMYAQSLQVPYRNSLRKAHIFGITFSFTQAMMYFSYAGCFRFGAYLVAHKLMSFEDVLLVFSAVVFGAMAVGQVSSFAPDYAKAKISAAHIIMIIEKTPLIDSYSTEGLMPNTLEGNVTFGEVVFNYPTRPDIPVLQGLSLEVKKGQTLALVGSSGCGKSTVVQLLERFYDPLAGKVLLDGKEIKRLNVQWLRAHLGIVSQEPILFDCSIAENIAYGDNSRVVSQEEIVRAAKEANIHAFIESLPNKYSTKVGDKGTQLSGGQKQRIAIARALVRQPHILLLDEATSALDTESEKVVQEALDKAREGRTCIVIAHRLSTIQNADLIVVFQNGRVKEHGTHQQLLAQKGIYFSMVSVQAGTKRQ

CYP2D6 = CYP2D6 (Homo sapiens, UniProt P10635); assay: in vitro; type: in vitro ADME; details: both sexes
CYP2D6, sequence (P10635 whole entry): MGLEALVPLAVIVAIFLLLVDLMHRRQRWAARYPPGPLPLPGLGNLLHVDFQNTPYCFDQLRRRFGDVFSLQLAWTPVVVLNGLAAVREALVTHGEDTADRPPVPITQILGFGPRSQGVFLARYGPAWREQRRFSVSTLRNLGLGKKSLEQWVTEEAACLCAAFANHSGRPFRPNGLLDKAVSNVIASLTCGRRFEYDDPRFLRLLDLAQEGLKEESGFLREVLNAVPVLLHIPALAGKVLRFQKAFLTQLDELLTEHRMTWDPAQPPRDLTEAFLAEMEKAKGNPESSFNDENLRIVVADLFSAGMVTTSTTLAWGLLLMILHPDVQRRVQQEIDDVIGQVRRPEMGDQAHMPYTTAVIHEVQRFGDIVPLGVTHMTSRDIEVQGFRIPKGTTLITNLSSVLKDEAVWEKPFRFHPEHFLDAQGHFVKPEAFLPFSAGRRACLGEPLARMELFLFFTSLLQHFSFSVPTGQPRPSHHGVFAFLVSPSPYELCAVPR
Experimental: The final incubation volume was 200 μl. […] Peak areas corresponding to metabolite were recorded.

SHP77 cells = assay: siRNA target knock-down with COTI-219, cell viability by trypan blue, SHP77; type: cell-based, human; details: SHP77, 500 nM, 48 h
Experimental: In brief, cells DMS114 and SHP77 cells were transfected with gene specific siRNA in the presence or absence of COTI-219 and cell viability determined after 24 to 48 h post-incubation using the trypan blue exclusion method.
Cell cultures were maintained under regular tissue culture conditions and passaged 1-2 times a week as recommended by ATCC. With the exception of the siRNA for Bim (Signal Silence Bim siRNA kit #6460 from Cell Signaling), all other siRNA reagents for gene knock-down experiments was obtained from Ambion (Silencer Negative Control #1 siRNA #AM4611, CDK2 Silencer Select #s204, HRAS Silencer Select #s807, Protein kinase C alpha Silencer Validated #301, MAPK3/Erk Silencer Pre-designed #214749, EGFR Silencer Select #s563, and ERBB2 Silencer Select #s611). […] The transfection method required optimization such that a knock-down of the target gene greater than ˜75% was achieved and confirmed by western blot analyses. […] Following an optimal knock-down level at >75%, 2×10^5 cells were incubated with 500 nM COTI-219 and number of viable cells was measured at 48 h.
Cell viability assays were performed 24 to 48 h following incubation with COTI-219 by the trypan blue exclusion method using a Beckman-Coulter Vi-CELL XR 2.03 automated cell counter. Routine laboratory methods were employed for the production of cellular lysates, protein quantitation, SDS-PAGE and western blotting. […]

For `S=C(N/N=C1/CCCc2cccnc21)N1CCN(c2ccccn2)CC1` [COTI-2], which “correlation of AKT2 expression with COTI-2 IC50” value [1] is on record?
The value was “inversely correlated”.

And the “resistance to COTI-2 after PTEN siRNA transfection” value (MCF-7 cells)?
The value was “significant increase in the resistance”.

And the nH (P-glycoprotein; P-glycoprotein Inhibition, TC7, 3H-digoxin substrate)?
Its nH is 0.5.

What about the IC50 (P-glycoprotein; TC-7, radiolabelled digoxin, read-out: IC50, Pgp inhibition) of the same compound?
Its IC50 is 39 µM.

And the inhibition at 15 min, 10 µM (CYP2D6; human liver microsomes, pH 7.4, probe dextromethorphan (10 µM), CYP2D6, HLM, dextromethorphan substrate, 1.0E−05 M, read-out: % Inhibition of Control Values)?
The inhibition at 15 min, 10 µM was 2%.

What about the inhibition at 15 min, 10 µM (CYP2D6; liver microsomes, pH 7.4, probe dextromethorphan, CYP2D6, 10 μM, read-out: percent inhibition) of the same compound?
The inhibition at 15 min, 10 µM was under 50%.

`CN1CCN(C(=S)NN=C2c3ncccc3-c3cccnc32)CC1` [COTI-219] was tested. Which “target knock-downs suppressing the apoptotic/cell growth inhibitory effect of COTI-219” value (SHP77 cells) did it give?
Its value is “not only Ras but Erbb2, Erk1, and PKC-α all suppressed”.
